Measurements: patent US7842672B2, “Phosphonate inhibitors of HCV” (Gilead Sciences, Inc., priority 2006, dated 2010)

Assays:
HCV NS5b polymerase = HCV NS5b polymerase (Hepatitis C virus genotype 1b, UniProt Q9WMX2); experiment: NS5b polymerase assay (HCV IC50 determination); assay type: biochemical; conditions: Concentration tested 200 micromolar
Experimental: Assay Protocol: NS5b polymerase assay (40 μL) was assembled by adding 28 μL polymerase mixture (final concentration: 50 mM Tris-HCl at pH 7.5, 10 mM KCL, 5 mM MgCl2, 1 mM DTT, 10 mM EDTA, 4 ng/μL of RNA template, and 75 nM HCV ? 21 NS5b polymerase) to assay plates followed by 4 μL of compound dilution. The polymerase and compound were pre-incubated at 35° C. for 10 minute before the addition of 8 μL of nucleotide substrate mixture (33P- ? -labeled competing nucleotide at KM and 0.5 mM of the remaining three nucleotides). The assay plates were covered and incubated at 35° C. for 90 min. Reactions were then filtered through 96-well DEAE-81 filter plates via vacuum. The filter plates were then washed under vacuum with multiple volumes of 0.125 M NaHPO4, water, and ethanol to remove unincorporated label. Plates were then counted on TopCount to assess the level of product synthesis over background controls. The IC50 value was determined using Prism fitting program.

[1] = test system: HCV replicon cells (Huh7); experiment: HCV replicon assay (HCV EC50 determination, luciferase readout); assay type: cell-based; conditions: for inhibition at 250 µM: Concentration tested 250 micromolar
Experimental: Replicon cells were seeded in 96-well plates at a density of 8×10^3 cells per well in 100 μL of culture medium, excluding Geneticin. Compound was serially diluted in 100% DMSO and then added to the cells at a 1:200 dilution, achieving a final concentration of 0.5% DMSO and a total volume of 200 μL. Plates were incubated at 37° C. for 3 days, after which culture medium was removed and cells were lysed in lysis buffer provided by Promega's luciferase assay system. Following the manufacturer's instruction, 100 μL of luciferase substrate was added to the lysed cells and luciferase activity was measured in a TopCount luminometer.

Structure (SMILES) | inhibition at 250 µM ([1]; Hepatitis C virus, Huh-7) | also measured
NC(=O)c1ncn([C@@H]2O[C@H](OCP(=O)(O)OP(=O)(O)OP(=O)(O)O)C[C@H]2O)n1 [Compound 9.4, Diphosphate of [5-(3-Carbamoyl-[1,2,4]triazol-1-yl)-4-hydroxy-tetrahydro-furan-2-yloxymethyl]-phosphonic acid] | – | inhibition at 200 µM (HCV NS5b polymerase): 65.5%
Nc1nc2c(ncn2C2OC(OCP(=O)(O)O)CC2O)c(=O)[nH]1 (stereo not drawn) [Compound 5.2, [5-(2-Amino-6-oxo-1,6-dihydro-purin-9-yl)-4-hydroxy-tetrahydro-furan-2-yloxymethyl]-phosphonic acid] | 27.2% | –
C[C@]1(OCP(=O)(O)O)O[C@@H](n2ccc(=O)[nH]c2=O)[C@H](O)[C@@H]1O [Compound 32.4, ((2R,3S,4R,5R)-5-(2,4-dioxo-3,4-dihydropyrimidin-1(2H)-yl)-3,4-dihydroxy-2-methyl-tetrahydrofuran-2-yloxy)methylphosphonic acid] | 14.8% | –
NC(=O)c1ncn(C2OC(OCP(=O)(O)O)CC2O)n1 (stereo not drawn) [Compound 8.3, [5-(3-Carbamoyl-[1,2,4]triazol-1-yl)-4-hydroxy-tetrahydro-furan-2-yloxymethyl]-phosphonic acid] | 18.5% | –
CCCCOC(=O)[C@H](C)NP(=O)(CO[C@@H]1C[C@@H](O)[C@H](n2cnc(C(N)=O)n2)O1)N[C@@H](C)C(=O)OCCCC [Compound 9.5, Bis (Alanine-n-butyl ester) phosphonamidate pro drug of [5-(3-carbamoyl-[1,2,4]triazol-1-yl)-4-hydroxy-tetrahydro-furan-2-yloxymethyl]-phosphonic acid] | – | inhibition at 50 µM ([1]; Hepatitis C virus, Huh-7, Concentration tested 50 micromolar): 1.1%
CCCCOC(=O)[C@H](C)NP(=O)(CO[C@H]1O[C@@H](n2ccc(N)cc2=O)[C@H](O)[C@@H]1O)N[C@@H](C)C(=O)OCCCC [Compound 32.5] | – | % Inhibition of replicon ([1]; Concentration tested 500 micromolar): 37.5%
